This note sets out measurements from patent US12280023B2, “Fluorophenyl beta-hydroxyethylamines and their use in the treatment of hyperglycaemia” (ATROGI AB, priority 2017, dated 2025).

SMILES strings stand for the structures. Where a name gives a salt, the structure may show the parent alone.

The test system of one experiment is L6-myotubes. In words: Glucose uptake (3H-2-deoxy-glucose) in differentiated L6-myotubes. The class given is cell-based. Conditions: agonist final concentration 1×10^−5, 50 nM 3H-2-deoxy-glucose, relative to isoproterenol, read-out: Biological example 1: glucose uptake activity compared to that of isoproterenol. Here is the method: (§1) L6-myoblasts were grown in Dulbecco's Modified Eagle's Medium (DMEM) containing 4.5 g/l glucose supplemented with 10% fetal bovine serum, 2 mM L-Glutamine, 50 U/ml penicillin, 50 μg/ml streptomycin and 10 mM HEPES. Cells were plated at 1×10^5 cells per ml in 24-well plates. After reaching 90% confluence the cells were grown in medium containing 2% FBS for 7 days where upon cells differentiated into myotubes.
Differentiated L6-myotubes were serum-starved over night in medium containing 0.5% fatty-acid free BSA and stimulated with agonist, final concentration 1×10^−5. After 1 h 40 min cells were washed with warm, glucose free medium or PBS and another portion of agonist was added to glucose free medium. After 20 min the cells were exposed to 50 nM ^3H-2-deoxy-glucose for another 10 min before washed in ice cold glucose free medium or PBS and lysed in 0.2 M NaOH for 1 h in 60° C.

Experiment [1] relates to Intracellular cAMP levels. Put plainly: Measurement of intracellular cAMP levels in differentiated L6 cells. The class given is cell-based. To be noted: Rattus norvegicus, L6, 0.25 h, agonist final concentration 1×10^−5, 15 min, alpha screen cAMP kit, relative to isoproterenol, read-out: Biological example 2: intracellular cAMP activity compared to that of isoproterenol. Here is the method: as §1
Differentiated cells were serum-starved over night and stimulated with agonist, final concentration 1×10^−5, for 15 min in stimulation buffer (HBSS supplemented with 1% BSA, 5 mM HEPES and 1 mM IBMX, pH 7.4). The medium was then aspirated and to end the reaction 100 μL of 95% EtOH was added to each well of a 24-well plate and cells were kept in −20° C. over night. The EtOH was let to evaporate and 500 μL of lysis buffer (1% BSA, 5 mM HEPES and 0.3% Tween-20, pH 7.4) was added to each well before put in −80° C. for 30 min and then kept in −20° C. Intracellular cAMP levels were detected using an alpha screen cAMP kit (6760635D from Perkin Elmer). The activity for each compound is compared to that of isoproterenol.

Regarding `CCCCNC[C@H](O)c1ccc(F)cc1` [Example 3, (R)-2-(Butylamino)-1-(4-fluorophenyl)ethan-1-ol], the Emax in the experiment on L6-myotubes is 25 to 50%; in experiment [1], under 25%.
For `CC(C)(C)NC[C@H](O)c1ccccc1F` [Example 17, (R)-2-(tert-Butylamino)-1-(2-fluorophenyl)ethan-1-ol], the values for the Emax (with L6-myotubes; in experiment [1]) were 50 to 75% and under 25%, respectively.
Taken in the same sequence, the figures for `CCCCNCC(O)c1ccc(F)c(F)c1` (centres unmarked) [Example 2, 2-(Butylamino)-1-(3,4-difluorophenyl)ethan-1-ol] were 50 to 75% and under 25%.
Taken in the same sequence, the figures for `CCCCNCC(O)c1ccc(F)c(NC(C)=O)c1F` (centres unmarked) [Example 8, N-(3-(2-(Butylamino)-1-hydroxyethyl)-2,6-difluorophenyl)acetamide] were 25 to 50% and under 25%.
With `O[C@@H](CNC1(C(F)(F)F)CC1)c1cccc(F)c1` [Example 30, (R)-1-(3-fluorophenyl)-2-O-(trifluoromethyl)cyclopropyl)amino)ethan-1-ol hydrochloride], the results for the Emax (in the experiment on L6-myotubes; in experiment [1]) were 50 to 75% and under 25%, respectively.
Take `Cc1c(F)cccc1[C@@H](O)CNC(C)(C)C` [Example 32, (R)-2-(tert-butylamino)-1-(3-fluoro-2-methylphenyl)ethan-1-ol]: the Emax is over 75% in the experiment on L6-myotubes and under 25% in experiment [1].
Taken in the same sequence, the figures for `CC(C)(C)NC[C@H](O)c1cccc(F)c1` [Example 5, (R)-2-(tert-Butylamino)-1-(3-fluorophenyl)ethan-1-ol] were over 75% and under 25%.
Taken in the same sequence, the figures for `CCC[C@H](C)NC[C@H](O)c1cccc(F)c1` [Example 13, (R)-1-(3-fluorophenyl)-2-(((S)-pentan-2-yl)amino)ethan-1-ol] were 50 to 75% and under 25%.
With `CC1(NC[C@H](O)c2cccc(F)c2)CCC1` [Example 21, (R)-1-(3-fluorophenyl)-2-((1-methylcyclobutyl)amino)ethan-1-ol], the Emax in the experiment with L6-myotubes is over 75%; in experiment [1], 25 to 50%.
Taken in the same sequence, the figures for `CCCCNC[C@H](O)c1cccc(O)c1F` [Example 26, (R)-3-(2-(Butylamino)-1-hydroxyethyl)-2-fluorophenol] were over 75% and 25 to 50%.
Taken in the same sequence, the figures for `CCCCNC[C@H](O)c1ccc(F)cc1O` [Example 20, (R)-2-(2-(Butylamino)-1-hydroxyethyl)-5-fluorophenol acetate] were over 75% and under 25%.
Taken in the same sequence, the figures for `CCC[C@@H](C)NC[C@H](O)c1cccc(F)c1` [Example 12, (R)-1-(3-fluorophenyl)-2-(((R)-pentan-2-yl)amino)ethan-1-ol] were over 75% and under 25%.
Regarding `CCCCNC[C@H](O)c1cccc(F)c1F` [Example 16, (R)-2-(Butylamino)-1-(2,3-difluorophenyl)ethan-1-ol], the Emax was over 75% in the experiment with L6-myotubes and under 25% in experiment [1].
In the case of `CCC[C@@H](C)NC[C@H](O)c1ccc(F)cc1` [Example 10, (R)-1-(4-Fluorophenyl)-2-(((R)-pentan-2-yl)amino)ethan-1-ol], the Emax in the experiment with L6-myotubes is 50 to 75%; in experiment [1], under 25%.
Taken in the same sequence, the figures for `CCCCNCC(O)c1cc(F)cc(F)c1` (centres unmarked) [Example 1, 2-(Butylamino)-1-(3,5-difluorophenyl)ethan-1-ol] were 50 to 75% and under 25%.
On to `CCCCNCC(O)c1ccc(F)c(N)c1F` (centres unmarked) [Example 7, 1-(3-Amino-2,4-difluorophenyl)-2-(butylamino)ethan-1-ol], for which the results for the Emax (in the experiment on L6-myotubes; in experiment [1]) were over 75% and under 25%, respectively.
Taken in the same sequence, the figures for `CC(C)(C)NC[C@H](O)c1ccc(F)c(O)c1` [Example 23, (R)-5-(2-(tert-Butylamino)-1-hydroxyethyl)-2-fluorophenol acetate] were over 75% and 50 to 75%.
On to `CCCCNC[C@H](O)c1cccc(N)c1F` [Example 28, (R)-1-(3-Amino-2-fluorophenyl)-2-(butylamino)ethan-1-ol dihydrochloride], for which the values for the Emax (in the experiment with L6-myotubes; in experiment [1]) were 50 to 75% and under 25%, respectively.
Taken in the same sequence, the figures for `CCCCNC[C@H](O)c1cccc(F)c1` [Example 4, (R)-2-(Butylamino)-1-(3-fluorophenyl)ethan-1-ol] were over 75% and under 25%.
Taken in the same sequence, the figures for `CCCCNC[C@H](O)c1ccccc1F` [Example 18, (R)-2-(Butylamino)-1-(2-fluorophenyl)ethan-1-ol] were over 75% and under 25%.
With `CC1(NC[C@H](O)c2cccc(F)c2)CC1` [Example 22, (R)-1-(3-fluorophenyl)-2-((1-methylcyclopropyl)amino)ethan-1-ol], the Emax in the experiment with L6-myotubes is over 75%; in experiment [1], under 25%.
Taken in the same sequence, the figures for `CCCCNC[C@H](O)c1ccc(F)c(O)c1` [Example 24, (R)-5-(2-(Butylamino)-1-hydroxyethyl)-2-fluorophenol acetate] were over 75% and under 25%.
Taken in the same sequence, the figures for `CC(C)(C)NC[C@H](O)c1cccc(N)c1F` [Example 27, (R)-1-(3-Amino-2-fluorophenyl)-2-(tert-butylamino)ethan-1-ol] were over 75% and 25 to 50%.
Taken in the same sequence, the figures for `CC(C)(C)NC[C@H](O)c1ccc(F)c(N)c1F` [Example 31, (R)-1-(3-amino-2,4-difluorophenyl)-2-(tert-butylamino)ethan-1-ol hydrochloride] were over 75% and under 25%.
`CC(C)(C)NC[C@H](O)c1ccc(F)cc1O` [Example 19, (R)-2-(2-(tert-Butylamino)-1-hydroxyethyl)-5-fluorophenol acetate]: the Emax was 50 to 75% in the experiment with L6-myotubes and under 25% in experiment [1].
Taken in the same sequence, the figures for `CCCCNCC(O)c1cc(F)c(N)c(F)c1` (centres unmarked) [Example 6, 1-(4-Amino-3,5-difluorophenyl)-2-(butylamino)ethan-1-ol] were over 75% and over 75%.
Taken in the same sequence, the figures for `CC(C)(C)NC[C@H](O)c1cccc(O)c1F` [Example 25, (R)-3-(2-(tert-Butylamino)-1-hydroxyethyl)-2-fluorophenol] were 50 to 75% and 50 to 75%.
`CC(C)(C)NC[C@H](O)c1cccc(F)c1F` [Example 15, (R)-2-(tert-Butylamino)-1-(2,3-difluorophenyl)ethan-1-ol]: the figures for the Emax (in the experiment with L6-myotubes; in experiment [1]) were over 75% and 25 to 50%, respectively.
Taken in the same sequence, the figures for `CCCC(C)(C)NC[C@H](O)c1cccc(F)c1` [Example 14, (R)-1-(3-Fluorophenyl)-2-((2-methylpentan-2-yl)amino)ethan-1-ol] were over 75% and under 25%.
Taken in the same sequence, the figures for `CC(C)(C)CNC[C@H](O)c1cccc(F)c1` [Example 29, (R)-1-(3-Fluorophenyl)-2-(neopentylamino)ethan-1-ol hydrochloride] were 25 to 50% and under 25%.
As for `CCC[C@H](C)NC[C@H](O)c1ccc(F)cc1` [Example 11, (R)-1-(4-Fluorophenyl)-2-(((S)-pentan-2-yl)amino)ethan-1-ol], the Emax is 25 to 50% in the experiment with L6-myotubes and under 25% in experiment [1].
